PubChem BioAssay (NCI)
“And” between values parts separate entries of the source, which are not always exact repeats. Equal entries are not always repeated.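 Cells were grown in 96-well plates and exposed to each compound for 48 hours at five concentrations; endpoints were interpolated linearly between bracketing concentrations, or set to the highest concentration if not reached. At the GI50, growth is halved. The concentration for full growth arrest is given as TGI.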

Legend:
Experiment in all cases: DTP human tumour cell line panel, 48 h
DLD-1 colon = test system: DLD-1 colon
DMS 273 small cell lung = test system: DMS 273 small cell lung
HOP-18 NSCLC = test system: HOP-18 NSCLC
LXFL 529 NSCLC = test system: LXFL 529 NSCLC
SNB-78 CNS = test system: SNB-78 CNS
T-47D breast = test system: T-47D breast
RXF-631 renal = test system: RXF-631 renal
MDA-N = test system: MDA-N
XF 498 CNS = test system: XF 498 CNS

O=C1O/C(=C(\Br)c2cccc3ccccc23)c2ccccc21
TGI (DLD-1 colon): > 66.7 µM | TGI (DMS 273 small cell lung): > 54.9 µM | TGI (HOP-18 NSCLC): 36.4 µM | TGI (LXFL 529 NSCLC): > 62.7 µM | TGI (SNB-78 CNS): > 100 µM

COc1cc(/C=C\[N+](=O)[O-])ccc1OCc1ccccc1
GI50 (T-47D breast): 2.25 µM | TGI (T-47D breast): 7.44 µM

COc1cc(/C=C2\CC3C4CC=C5C[C@@H](OC(C)=O)CC[C@]5(C)C4CC[C@]3(C)C2=O)ccc1OCCCn1ccnc1 (some centres not stated)
GI50 (T-47D breast): 19.8 µM | TGI (T-47D breast): > 50 µM

COc1ccc(-c2cc(/C=C3\C(=O)Nc4ccc(Cl)cc43)[nH]n2)cc1
GI50 (T-47D breast): 3.62 µM | TGI (T-47D breast): 14.6 µM

O=C1C[C@@H]2C(COC(=O)c3ccccc3)N(OCc3ccccc3)C[C@@H]2O1 (some centres not stated)
TGI (DLD-1 colon): > 100 µM | TGI (DMS 273 small cell lung): > 100 µM | TGI (HOP-18 NSCLC): > 100 µM | TGI (LXFL 529 NSCLC): > 100 µM | TGI (RXF-631 renal): > 100 µM | TGI (SNB-78 CNS): > 100 µM

O=[N+]([O-])c1ccc(N/N=C/c2c(O)ccc3ccccc23)nc1
GI50 (T-47D breast): 6.39 µM | TGI (T-47D breast): > 100 µM

CC[C@@]1(O)C(=O)NCc2c1cc1n(c2=O)Cc2cc3c(N)cccc3nc2-1
GI50 (MDA-N): 3.4 µM | TGI (MDA-N): 28.1 µM | GI50 (T-47D breast): 0.623 µM | TGI (T-47D breast): > 19.9 µM

NC(=O)N/N=C/C(/C=N/NC(N)=O)[N+](=O)[O-]
TGI (DLD-1 colon): > 100 µM | TGI (LXFL 529 NSCLC): > 100 µM | TGI (RXF-631 renal): > 100 µM | TGI (XF 498 CNS): > 100 µM

CC(=O)OCCOCNC(=S)N/N=C(\C)c1cnc2ccccc2n1
TGI (DLD-1 colon): > 100 µM | TGI (DMS 273 small cell lung): > 100 µM | TGI (HOP-18 NSCLC): > 100 µM | TGI (LXFL 529 NSCLC): > 100 µM | TGI (SNB-78 CNS): > 100 µM | TGI (XF 498 CNS): > 100 µM

O=c1nc(Nc2cccc(Cl)c2)oc2cc(Cl)oc(=O)c12
GI50 (T-47D breast): 5.29 µM | TGI (T-47D breast): 27.1 µM

CCCCNN
TGI (MDA-N): > 100 µM | TGI (T-47D breast): > 100 µM

C=C1C(=O)OC2CC1C(O)C/C(C)=C/CC/C(C)=C/C(O)CC2C (configuration not stated)
TGI (MDA-N): 9.53 µM | TGI (T-47D breast): 4.48 µM

Cc1sc(C)c(Cc2c(C)sc(C)c2CCl)c1CCl
GI50 (T-47D breast): > 100 µM | TGI (T-47D breast): > 100 µM

N#Cc1c(-c2ccccc2)cc(-c2ccc(Nc3nc(Nc4ccc(Cl)cc4)nc(Nc4ccc(Cl)cc4)n3)cc2)nc1N
GI50 (T-47D breast): 1.6 µM | TGI (T-47D breast): 4.37 µM

Cn1ccn2c3nc4ccccc4nc3c(=O)c(C#N)c12
TGI (DLD-1 colon): > 100 µM | TGI (DMS 273 small cell lung): > 100 µM | TGI (HOP-18 NSCLC): > 100 µM | TGI (LXFL 529 NSCLC): > 100 µM | TGI (MDA-N): > 100 µM | TGI (SNB-78 CNS): > 100 µM | TGI (T-47D breast): > 100 µM | TGI (XF 498 CNS): > 100 µM

CO/C1=C\C(C)=C\C(C)C(O)C(C)C/C(C)=C/C=C/C(OC)C(C(C)C(O)C(C)C2(O)CC(O)C(C)C(C(C)C)O2)OC1=O (configuration not stated)
TGI (DLD-1 colon): 21.7 µM | TGI (DMS 273 small cell lung): 0.0107 µM and 0.0233 µM | TGI (HOP-18 NSCLC): 21.9 µM | TGI (SNB-78 CNS): 25 µM | GI50 (XF 498 CNS): 0.0122 µM | TGI (XF 498 CNS): 0.0849 µM and 0.0294 µM

COCCOC(=O)NC(=O)Nc1ccc(/C(=N/O)c2ccc(Cl)cc2)cc1
GI50 (T-47D breast): 8.82 µM | TGI (T-47D breast): 50.5 µM

COc1ccc(/C=C/c2nc(NCCCN(C)C)c3ccccc3n2)cc1
GI50 (T-47D breast): 1.81 µM | TGI (T-47D breast): 3.61 µM

CCNC(=O)C#CC(=O)NCC
GI50 (DLD-1 colon): > 10 µM | TGI (DLD-1 colon): > 64.9 µM | GI50 (DMS 273 small cell lung): > 10 µM | TGI (DMS 273 small cell lung): > 10 µM and 39.6 µM | GI50 (HOP-18 NSCLC): > 10 µM | TGI (HOP-18 NSCLC): > 100 µM | GI50 (LXFL 529 NSCLC): > 10 µM | TGI (LXFL 529 NSCLC): > 100 µM | GI50 (RXF-631 renal): > 10 µM | TGI (RXF-631 renal): > 100 µM | GI50 (SNB-78 CNS): > 100 µM | TGI (SNB-78 CNS): > 100 µM | TGI (XF 498 CNS): > 100 µM

Cc1nc2c(n1C(C)(C)C)C(=O)c1ccccc1C2=O
TGI (DLD-1 colon): > 100 µM | TGI (DMS 273 small cell lung): > 100 µM | TGI (LXFL 529 NSCLC): > 100 µM | TGI (SNB-78 CNS): > 100 µM | TGI (XF 498 CNS): > 100 µM

Nc1ccc(S(=O)(=O)C23CC4CC(CC(C4)C2)C3)cc1
TGI (T-47D breast): > 100 µM

N#Cc1cnc2cc(OC[C@@H](O)CO)c(NC(=O)CC3CSSC3)cc2c1Nc1ccc(OCc2cccc(F)c2)c(Cl)c1
GI50 (T-47D breast): 0.646 µM | TGI (T-47D breast): 1.59 µM

CC(C)c1ccc(C(=O)Nc2sc3c(c2C#N)CCC(=O)C3)cc1
GI50 (T-47D breast): 0.263 µM | TGI (T-47D breast): 1.48 µM

COc1ccccc1-c1cc(=O)c2ccccc2[nH]1
TGI (DLD-1 colon): > 100 µM | TGI (DMS 273 small cell lung): > 100 µM | TGI (LXFL 529 NSCLC): > 100 µM | TGI (SNB-78 CNS): > 100 µM

C[C@]1(CO)[C@H]2CC[C@@]34C=C[C@@](CO)(CC[C@H]3[C@]2(C)CC[C@H]1O)C4
TGI (MDA-N): > 100 µM | TGI (T-47D breast): 84.3 µM

CC(C)(C)NCc1cc(C(C)(C)C)cc(-c2ccc(Cl)cc2)c1O
TGI (MDA-N): 31.4 µM

O=C(Nc1ccc(Cl)cc1)c1ccc(NC2=C(Cl)C(=O)N(Cc3ccccc3)C2=O)cc1
GI50 (T-47D breast): 20.6 µM | TGI (T-47D breast): 67.3 µM

CC(C)c1ccc(/C(C(=O)O)=C(\O)C(=O)O)cc1
TGI (MDA-N): > 100 µM | TGI (T-47D breast): > 100 µM

NC(=O)c1cc(Br)cc(C2CCCCC2)c1O
GI50 (T-47D breast): 11.5 µM | TGI (T-47D breast): 27 µM

COc1cccc(NC(=O)CC(=O)N2N=C(N(CCC#N)c3ccccc3C)CC2c2ccccc2)c1 (configuration not stated)
TGI (DLD-1 colon): > 100 µM | TGI (DMS 273 small cell lung): > 100 µM | TGI (HOP-18 NSCLC): > 100 µM | TGI (LXFL 529 NSCLC): > 100 µM | TGI (RXF-631 renal): > 100 µM | TGI (SNB-78 CNS): > 100 µM

O=C(c1ccc2ncc(-c3nc(NC4CC4)ncc3F)n2c1)N1CCOCC1
GI50 (T-47D breast): 2 µM | TGI (T-47D breast): 7.49 µM

O=C(Nc1nc2ccccc2n1Cc1ccccc1)NC12CC3CC(CC(C3)C1)C2
TGI (DLD-1 colon): > 100 µM | TGI (DMS 273 small cell lung): 55.1 µM | TGI (HOP-18 NSCLC): > 100 µM | TGI (LXFL 529 NSCLC): > 100 µM | TGI (SNB-78 CNS): 49.1 µM | TGI (XF 498 CNS): 73.8 µM

CCOc1cc2c(NCCCN(CCO)CCO)ncnc2c(OCC)c1OCC
TGI (MDA-N): > 100 µM | TGI (T-47D breast): > 100 µM

CN1NC2(CCCCC2)ON=C1c1ccccc1
TGI (DLD-1 colon): > 100 µM | TGI (HOP-18 NSCLC): > 100 µM | TGI (SNB-78 CNS): > 100 µM

Cc1nc2sc(C(=O)Nc3cccc4ccccc34)c(N)c2cc1C(=O)c1ccccc1
GI50 (T-47D breast): 3.64 µM | TGI (T-47D breast): > 50 µM

O=C(O)CCCCCOc1cccnc1/C=N/NC1=NCCN1
TGI (DLD-1 colon): > 100 µM | TGI (DMS 273 small cell lung): > 100 µM | TGI (HOP-18 NSCLC): > 100 µM | TGI (LXFL 529 NSCLC): > 100 µM | TGI (SNB-78 CNS): > 100 µM | TGI (XF 498 CNS): > 100 µM

COc1ccc2c(c1OC)C1=C(C2=O)c2cc3c(cc2CCN1)OCO3
TGI (DLD-1 colon): > 100 µM | TGI (DMS 273 small cell lung): 52.9 µM | TGI (HOP-18 NSCLC): > 100 µM | TGI (LXFL 529 NSCLC): > 100 µM | TGI (SNB-78 CNS): > 100 µM | TGI (XF 498 CNS): 87.2 µM

CCC(=O)C(C)C1=Nc2nnc(CCCCCCCc3nnc4n3C(=O)C(C(C)C(=O)CC)=N4)n2C1=O (configuration not stated)
TGI (HOP-18 NSCLC): > 100 µM | TGI (LXFL 529 NSCLC): > 100 µM | TGI (XF 498 CNS): > 100 µM

Cn1c(=O)c(Oc2ccccc2F)cc2cnc(NC3CCOCC3)nc21
GI50 (T-47D breast): > 25 µM | TGI (T-47D breast): > 25 µM

CN(C)N1C(=O)c2ccccc2NC1c1ccccc1 (configuration not stated)
TGI (MDA-N): > 100 µM | TGI (T-47D breast): > 100 µM
